Results reported in patent US12502369B2, “Methods of cancer treatment” (K-GEN, INC., priority 2015, dated 2025).
“Also recorded” adds a separate entry of the source.

What was measured:
[1] = tested on: PKC isoforms and Erk1/2 in A549 cells; assay: PKC inhibitor effect on PKC activator-mediated phosphorylation of PKCs and Erk1/2, A549; format: cell-based; conditions: 30 minutes; for K101A- or K102-induced phosphorylation of PKCμ at Ser916 or Ser744/748, PKCδ at Thr505, and Erk / phosphorylation of PKCδ at Tyr311 induced by PKC inhibitor: inhibitor pre-treatment 1 μM
Procedure: To assay if PKC inhibitors have any effects on the PKC activator-mediated phosphorylation of PKCs, A549 cells were pre-treated with DMSO, PKC inhibitors Go6983 (0.3 μM or 1 μM) or Sotrastaurin (0.3 μM or 1 μM) for 30 minutes before adding PKC activators K101A (1 μM) or K102 (0.1 μM) for another 30 minutes (FIG. 22). Cell lysis, protein quantitation, and Western blot analysis were performed as described above in Example 2 and 4. […] Phosphorylation of PKCα/β at Thr638/641 was not affected by the inhibitors (FIG. 22A). […] These PKC inhibitor studies indicate that blocking phosphorylation and activation of various isoforms of PKC is correlated with inhibition of the anti-proliferative effects of the PKC activators.
Cell lysis, protein quantitation, and Western blot analysis were performed as described above in Example 2 and 4. […] These PKC inhibitor studies also indicate that phosphorylation and activation of novel PKC isoforms and PKCμ is required for the anti-proliferative effects of the PKC activators whereas phosphorylation of PKCδ at Tyr311 is correlated with inhibition of the anti-proliferative effects of PKC activators.

PKCα & β = conditions: cited from earlier work
[2] = tested on: PKC isoforms and Erk1/2 in Mino and Namalwa cells; assay: PKC inhibitor effect on K101A-mediated phosphorylation of PKCs and Erk1/2 in Mino and Namalwa cells; format: cell-based; conditions: for phosphorylation of PKCδ at Tyr311 induced by PKC inhibitor: inhibitor pre-treatment 30 minutes; for K101A-induced phosphorylation of PKCμ at Ser916 or Ser744/748, PKCδ at Thr505, and Erk: inhibitor pre-treatment 30 minutes (Go6983, Sotrastaurin 1 μM)
Procedure: Cell lysis, protein quantitation, and Western blot analysis were performed as described above in Example 2 and 4. […] Again, these PKC inhibitor studies indicate the anti-proliferative effects of the PKC activators appear to be positively associated with phosphorylation and activation of novel PKC isoforms and PKCγ, and negatively associated with the phosphorylation of PKCδ at Tyr311.

A549 = assay: Proliferation assay, PKC inhibitor in combination with PKC activators, A549; format: cell-based; conditions: for effect on PKC activator-mediated proliferation inhibition: K101A with Go6976 (0.1 or 0.3 μM), GF109203X (0.3 or 1 μM), Enzastaurin (0.3 or 1 μM); for inhibition of K101A anti-proliferative effects: higher concentrations of inhibitor
Procedure: To assess if activation of different classes of PKC is required for anti-proliferation effect of PKC activators, Sotrastaurin, a PKC inhibitor targeting both conventional and novel classes of PKC, was tested in combination with PKC activators in the proliferation assays. Proliferation assay in lung cancer cell line A549 (FIG. 15) and in pancreatic cell line MiaPaCa-2 (FIG. 16) was performed as described in Example 1. […] Then, K101A or K102 was tested in 8- or 9-point titrations in the presence of DMSO or Sotrastaurin (0.1 μM or 1 μM). […] Thus, PKC activator-mediated anti-proliferation effects are dependent on activation of PKC isoforms from conventional, or novel, or both classes of PKCs.
To assess if PKC activation is required for anti-proliferation effect of PKC activators in cancer cell lines that are sensitive to these activators, a pan-PKC inhibitor Go6983, targeting classes of PKCs (conventional, novel, atypical, and PKCμ), was tested in combination with PKC activators in the proliferation assays. Proliferation assay in lung cancer cell line A549 (FIG. 17) and in pancreatic cell line MiaPaCa-2 (FIG. 18) was performed as described in Example 1. […] Then, K101A or K102 was tested in 8- or 9-point titrations in the presence of DMSO or Go6983 (0.1 μM or 1 μM). […] Thus, PKC activation is required for anti-proliferation effect of PKC activators.
Proliferation assay was performed as described in Example 1. […] Thus, PKC activator-mediated anti-proliferation effects appear mainly dependent on activation of novel PKC isoforms.

Mino cells = assay: Proliferation assay, PKC inhibitors in combination with PKC activators, Mino; format: cell-based; conditions: Sotrastaurin 0.3/1 μM, Go6983 0.1/1 μM, Go6976 0.3/1 μM, Enzastaurin 1/3 μM
Procedure: PKC inhibitor studies were performed as described in Example 8, 9, and 10. […] Thus, PKC activator-mediated anti-proliferation effects may be dependent on activation of PKC isoforms from the novel PKC class.

Namalwa cells = assay: Proliferation assay, PKC inhibitors in combination with PKC activators, Namalwa; format: cell-based; conditions: Sotrastaurin 0.3/1 μM, Go6983 0.1/1 μM, Go6976 0.3/1 μM, Enzastaurin at very high concentration of 10 μM
Procedure: PKC inhibitor studies were performed as described in Example 15. […] Thus, PKC activator-mediated anti-proliferation effects may be dependent on activation of novel PKC isoforms.

PKCα, β, & γ = conditions: cited from earlier work
MiaPaCa-2 = assay: Proliferation assay, PKC inhibitor in combination with PKC activators, MiaPaCa-2; format: cell-based; conditions: Go6983 0.1 μM or 1 μM with K101A or K102
PKCε = PKCε (Homo sapiens, UniProt Q02156); conditions: cited from earlier work
[3] = inhibitor pre-treatment 0.3 μM or 1 μM

Sequence of PKCε (Q02156 whole entry): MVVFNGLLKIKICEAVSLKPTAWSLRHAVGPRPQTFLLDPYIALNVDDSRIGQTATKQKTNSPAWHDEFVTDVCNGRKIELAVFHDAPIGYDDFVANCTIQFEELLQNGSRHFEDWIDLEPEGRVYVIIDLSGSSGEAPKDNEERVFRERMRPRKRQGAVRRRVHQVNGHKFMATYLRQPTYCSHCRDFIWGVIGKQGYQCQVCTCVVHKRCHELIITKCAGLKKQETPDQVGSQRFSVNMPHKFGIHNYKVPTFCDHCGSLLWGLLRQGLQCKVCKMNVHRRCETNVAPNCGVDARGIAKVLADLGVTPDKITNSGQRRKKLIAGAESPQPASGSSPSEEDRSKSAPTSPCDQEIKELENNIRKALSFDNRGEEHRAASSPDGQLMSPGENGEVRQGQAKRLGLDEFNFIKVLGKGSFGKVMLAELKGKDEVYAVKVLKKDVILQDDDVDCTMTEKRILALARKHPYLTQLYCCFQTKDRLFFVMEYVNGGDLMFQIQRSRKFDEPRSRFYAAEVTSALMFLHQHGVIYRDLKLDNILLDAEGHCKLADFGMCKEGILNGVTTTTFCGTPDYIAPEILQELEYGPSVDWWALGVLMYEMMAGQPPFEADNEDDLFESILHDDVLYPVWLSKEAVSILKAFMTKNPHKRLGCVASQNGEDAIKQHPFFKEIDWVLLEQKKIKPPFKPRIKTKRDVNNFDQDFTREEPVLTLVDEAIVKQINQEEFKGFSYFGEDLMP

| SMILES | K101A- or K102-induced phosphorylation of PKCμ at Ser916 or Ser744/748, PKCδ at Thr505, and Erk [1] | phosphorylation of PKCδ at Tyr311 induced by PKC inhibitor [1] | Ki (PKCα & β) [nM] | phosphorylation of PKCδ at Tyr311 induced by PKC inhibitor [2] | K101A-induced phosphorylation of PKCμ at Ser916 or Ser744/748, PKCδ at Thr505, and Erk [2] | effect on PKC activator-mediated proliferation inhibition (A549) | effect on PKC activator-mediated anti-proliferation effects (Mino cells) | effect on PKC activator-mediated anti-proliferation effects (Namalwa cells) | Ki (PKCα, β, & γ) [nM] | inhibition of K101A anti-proliferative effects (A549) | K101A- and K102-induced phosphorylation of Erk1/2 [1, 3] | K101A- or K102-induced phosphorylation, P-PKCμ (Ser916), P-PKCμ (Ser744/748), P-PKCδ (Thr505) [1, 3] | Phosphorylation of PKCα/β at Thr638/641 [1, 3] | effect on PKC activator-mediated anti-proliferation effects (MiaPaCa-2) | effect on PKC activator-mediated anti-proliferation effects (A549; Go6983 0.1 μM or 1 μM with K101A or K102) | Ki (PKCε) [nM] |
| --- | --- | --- | --- | --- | --- | --- | --- | --- | --- | --- | --- | --- | --- | --- | --- | --- |
| Cn1c2ccccc2c2c3c(c4c5ccccc5n(CCC#N)c4c21)CNC3=O [Go6976] | minimal effects | induced no phosphorylation of PKCδ at Tyr311 | 2.3 to 6.2 | did not induce phosphorylation | little effect | minimal effects; also recorded: no inhibition | did not block | did not block |  |  |  |  |  |  |  |  |
| CN(C)CCCn1cc(C2=C(c3c[nH]c4ccccc34)C(=O)NC2=O)c2ccccc21 [GF109203X] | minimal effects | induced phosphorylation of PKCδ at Tyr311 partially |  |  |  | minimal effects; also recorded: weak inhibition |  |  | ~20 | Slight inhibition |  |  |  |  |  |  |
| COc1ccc2c(c1)c(C1=C(c3c[nH]c4ccccc34)C(=O)NC1=O)cn2CCCN(C)C [Go6983] | completely abolished | induced phosphorylation of PKCδ at Tyr311 |  | induced robust phosphorylation | completely abolished |  | dose-dependently blocked | dose-dependently blocked |  |  | blocked dose-dependently | blocked in a dose-dependent manner | not affected | inhibited the PKC activator-mediated anti-proliferation effects in a dose-dependent manner | inhibited the PKC activator-mediated anti-proliferation effects in a dose-dependent manner |  |
| Cn1cc(C2=C(c3cn(C4CCN(Cc5ccccn5)CC4)c4ccccc34)C(=O)NC2=O)c2ccccc21 [Enzastaurin] | minimal effects | induced phosphorylation of PKCδ at Tyr311 partially |  | induced moderate phosphorylation |  | minimal effects; also recorded: weak inhibition | partially blocked | marginally blocked |  | Slight inhibition |  |  |  |  |  | 110 |
